We go through one molecule from patent publication EP0311107A2, “Anti-HIV active 3'-fluoro-purine-2',3'-dideoxyribosides” (priority 1987, dated 1989).

Each structure is given as a SMILES string. Read-outs that look alike come from different tables or passages of the source. Marks after values point to notes of the source that are not given here.

Series [1] relates to HIV (HTLV-IIIB). The series can be described thus: HIV-induced cytopathogenicity in MT4 cells (viable cell count by trypan blue exclusion after 5 days). It is filed as cell-based. The settings on record: for EC50: Human immunodeficiency virus 1, IIIB. Here is the method:
(§1) For the determination of the cytopathic effect of HIV in human T-lymphocyte MT4 cells, MT4 cells, subcultured one day before the start of the experiment, were adjusted at 5 x 10⁵ cells/ml and infected with HIV (HTLV-IIIB) at 100 CCID₅₀/ml. Then, 100 µl of the infected cell suspension was brought into wells of a microtiter tray containing 100 µl of various dilutions of the test compounds. After 5 days incubation at 37°C, the number of viable cells was recorded microscopically in a hematocytometer by trypan blue exclusion.
(§2) A series of novel 2,6-diaminopurine and guanine 2′,3′-dideoxynucleoside analogues in which the 2′,3′-dideoxyribose moiety is substituted by a 3′-fluoro group, or replaced by arabinose or 2′-deoxyxylose were evaluated for their effect on the transformation of C3H mouse embryo cells by Moloney murine sarcoma virus (MSV) (Table 1) and the cytopathogenicity induced by HIV in human T4 lymphocyte MT4 cells (Table 1, Fig. 2).

Series [2] in a line: in vitro. It is filed as cell-based. Particulars: human, mt4 cells. Here is the method: as §1
Its anti-HIV activity is also higher than that found for its corresponding 2,6-diaminopurine derivative FddDAPR.

Series [3] concerns Moloney murine sarcoma virus (MSV). The series can be described thus: MSV-induced C3H cell transformation. Type of series: cell-based. Particulars: for EC50: Moloney murine sarcoma virus, C3H. Here is the method:
For transformation of C3H mouse embryo cells by Molo ney murine sarcoma virus (MSV), confluent monolayers of C3H cells in 1 ml wells of Tissue Culture Cluster plates were infected wiht 150 foci-forming units of MSV during 90 min, whereafter medium was replaced by 1 ml fresh culture medium containing different concentrations of test compound. After 6-7 days incubation at 37°C, transformation of the cell cultures was monitored microscopically.
as §2

Series [4] in a line: in vitro. Type of series: cell-based. Particulars: mouse, c3h cells.
Series [5] deals with B-lymphoblast Raji. In words: Cytostatic effect against Raji cells. Type of series: cell-based. The settings on record: Homo sapiens, read-out: Inhibitory dose-50 Raji. Here is the method: (§3) The cultivation of Raji, Molt/4F, CEM, H9, HUT-78 and MT4 cells has been described in Balzarini, J, et al, Biochem. Biophys. Res. Commun. 136:64-71 (1986b) and Pauwels, R. et al, J. Virol. Methods, 16:171-185 (1987).
(§4) The cytostatic effects of the compounds listed in Table 1 were examined against several human B-lymphoblast Raji, T-lymphoblast Molt/4F and T-lymphocyte CEM, H9 and MT4 cell lines (Table 2). […] In no case is the ID₅₀ of the compounds for tumor cell proliferation lower than 60 µM. FddGuo is slightly more cytostatic than FddDAPR (ID₅₀ : 190 to 228 µM, and 233 to >1000 µM, respectively). XylodDAPR and araDAPR are devoid of any anti-cellular activity, even when tested at a concentration as high as 1000 µM.

Series [6] relates to T-lymphoblast Molt/4F. In words: Cytostatic effect against Molt/4F cells. Type of series: cell-based. The settings on record: Homo sapiens, read-out: Inhibitory dose-50 Molt/4F. An excerpt: The cultivation of Raji, Molt/4F, CEM, H9, HUT-78 and MT4 cells has been described in Balzarini, J, et al, Biochem. Biophys. Res. Commun.
The cytostatic effects of the compounds listed in Table 1 were examined against several human B-lymphoblast Raji, T-lymphoblast Molt/4F and T-lymphocyte CEM, H9 and MT4 cell lines (Table 2).

The test system of series [7] is T-lymphocyte CEM. In words: Cytostatic effect against CEM cells. It is filed as cell-based. The settings on record: Homo sapiens, CCRF-CEM, read-out: Inhibitory dose-50 CEM. Here is the method:
as §3, §4

The test system of series [8] is H9. In words: Cytostatic effect against H9 cells. It is filed as cell-based. The settings on record: Homo sapiens, read-out: Inhibitory dose-50 H9. The protocol: as §3, §4
Series [9] relates to MT4. In words: Cytostatic effect against MT4 cells. It is filed as cell-based. Particulars: Homo sapiens, read-out: Inhibitory dose-50 MT4. The protocol: as §3, §4
The target in series [10] is T1, beef intestine adenosine deaminase (ADA) (Bos taurus, UniProt P56658).
T1 construct: Kinetic properties of beef intestine adenosine deaminase for 2,6-diaminopurine 2′,3′-dideoxynucleoside analogues; purchased Boehringer Mannheim, Mannheim, West Germany; host or cells: beef intestine (tissue-derived enzyme)
T1 sequence (P56658 1-363): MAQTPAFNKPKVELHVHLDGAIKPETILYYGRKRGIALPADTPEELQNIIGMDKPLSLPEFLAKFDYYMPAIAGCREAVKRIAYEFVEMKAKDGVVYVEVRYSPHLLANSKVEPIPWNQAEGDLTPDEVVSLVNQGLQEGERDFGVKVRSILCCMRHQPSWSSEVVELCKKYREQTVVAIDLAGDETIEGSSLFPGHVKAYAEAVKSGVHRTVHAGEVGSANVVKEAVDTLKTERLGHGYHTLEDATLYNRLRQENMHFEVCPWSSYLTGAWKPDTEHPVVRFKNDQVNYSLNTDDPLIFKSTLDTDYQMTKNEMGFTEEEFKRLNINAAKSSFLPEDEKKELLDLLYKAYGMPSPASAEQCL
In words: Substrate kinetics for deamination by adenosine deaminase. Type of series: biochemical. The source says:
All four ddDAPR analogues were examined for their susceptibility to deamination by beef intestine adenosine de aminase (ADA).

Series [11] relates to HIV (HTLV-IIIB). The settings on record: earlier report, Balzarini et al (1987b); read-out: 50% effective dose (ED₅₀), inhibition of HIV-replication in MT4 cells; cited from earlier work.
The test system of series [12] is T-lymphocyte CEM. In words: Cytostatic effect against CEM cells. Type of series: cell-based. The settings on record: Homo sapiens, read-out: Inhibitory dose-50 CEM.
In series [13] the test system is MT4. In words: Cytostatic effect against MT4 cells. Type of series: cell-based. The settings on record: Homo sapiens, read-out: Inhibitory dose-50 MT4. The source holds these as a separate data set.
Series [14] deals with T1, beef intestine adenosine deaminase (ADA). Particulars: data taken from Balzarini, J. et al (1987c); cited from earlier work.
The mark [15] stands for this setting: presence of DCF (10 µM preincubation).

Turning to `Nc1nc(N)c2ncn([C@H]3CC[C@@H](CO)O3)c2n1` [ddDAPR, 2,6-Diamino-9-(2,3-dideoxy-β-D-glycero-pentofuranosyl)purine], the EC50 was determined as 3.8 µM in series [1] (MT4, 120 h, MT4 cells, 5 days at 37°C, read-out: HIV-induced cytopathogenicity in MT4 cells ED₅₀); 13 µM in series [1] (MT4, presence of 10 µM DCF (2′-deoxycoformycin), read-out: Effective dose-50 HIV-induced cytopathogenicity in MT4 cells); 3.8 µM in [1] (MT4, without DCF (Table 3), read-out: Effective dose-50 HIV-induced cytopathogenicity in MT4 cells); 19 µM in series [3] (C3H cells, 6-7 days at 37°C, read-out: MSV-induced C3H cell transformation ED₅₀); 84 µM in series [3] (presence of 10 µM DCF (2′-deoxycoformycin), read-out: Effective dose-50 MSV-induced C3H cell transformation); 23 µM in series [3] (without DCF (Table 3), read-out: Effective dose-50 MSV-induced C3H cell transformation). For the same molecule, in series [11], the EC50 is 2.5 to 3.6 µM. For the same molecule, in series [1] (selectivity index, ratio of 50% cytotoxic dose to 50% antivirally effective dose, 7200 min), the “HIV-induced cytopathogenicity in MT4 cells S.I.” value stood at 106. The molecule also gave a CC50 at 120 h in series [2] of 404 µM. For the same molecule, the “MSV-induced C3H cell transformation S.I.” value in series [3] (selectivity index, ratio of 50% cytotoxic dose to 50% antivirally effective dose) is on record as “≧ 11”. This molecule also yielded a CC50 in series [4] of at least 200 µM. The IC50 in [5] is 324 µM; in series [6] (setting [15]) it was above 1000 µM; in series [6] (without DCF (Table 4)), 220 µM; in series [7], 125 µM; in series [8], 466 µM; in [9], 644 µM. The IC50 in [12] (setting [15]) is above 1000 µM; in [12] (without DCF (Table 4)), 128 µM; in series [13] (MT4, presence of DCF (10 µM preincubation)), above 1000 µM; in series [13] (MT4, without DCF (Table 4)), above 1000 µM. Also, the “Vmax relative to that observed for Ado” value in series [10] is 3%. Further, the Km in series [14] was 29 µM. Also, in series [14], the Vmax is 8.2^a µmole/mg proten/min.
